We go through five molecules from ChEMBL document CHEMBL1201862, “PubChem BioAssay data set” (2004).

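The compound was tested at five concentrations on cells cultured in 96-well plates, with a 48-hour exposure period. GI50: concentration for 50% inhibition of growth.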 The source made the active and inactive calls. Cut-off read from the data, not from the text of the source: active = GI50 up to about 1.1 µM and inactive = higher.

Test systems include BT-549; SF-539; TK-10; NCI-H522; SNB-78; COLO 205; MDA-MB-231; DMS-114; SK-MEL-28; SR; DU-145; SW-620; NCI/ADR-RES; DMS-273; LXFL 529; MCF7; HCT-15; HOP-62; KM-20L2; HOP-18.
What all share (experiment): NCI-60 cell line screen, 48 h

For `N#CC(C#N)SCc1ccccc1`, the GI50 in the assay with BT-549 is 1.85 µM (inactive); in the assay on SF-539, 5.19 µM (inactive); with TK-10, 26.5 µM (inactive); with NCI-H522 it was 5.86 µM (inactive); with SNB-78, 33 µM (inactive); with COLO 205, 15.6 µM (inactive). The GI50 was 2.66 µM (inactive) in the assay with MDA-MB-231; 24.4 µM (inactive) in the assay on DMS-114; 36.2 µM (inactive) in the assay on SK-MEL-28; 1.11 µM (active) in the assay with SR; 22.9 µM (inactive) with DU-145; 4.59 µM (inactive) with SW-620. Besides, the GI50 with NCI/ADR-RES was 6.64 µM (inactive); with DMS-273, 39.2 µM (inactive); with LXFL 529, 33.7 µM (inactive); in the assay on MCF7 it was 4.55 µM (inactive); in the assay with HCT-15, 31.1 µM; with HOP-62 it was 15.7 µM (inactive). For the same molecule, in the assay on KM-20L2, the GI50 is 32.3 µM (inactive).

Turning to `O=C(CCc1nnc2s/c(=C\c3ccccc3Cl)c(=O)n12)Nc1cc(Cl)ccc1Cl`, the GI50 in the assay on SF-539, in the assay on TK-10, in the assay on NCI-H522, in the assay with SNB-78, in the assay with DMS-114 and in the assay on SK-MEL-28 was > 100 µM (inactive) each time. Also, the GI50 in the assay with SR is > 100 µM (inactive); in the assay with SW-620, > 100 µM (inactive); in the assay on LXFL 529 it was > 100 µM (inactive); in the assay on HCT-15 it was over 100 µM; in the assay with HOP-18, > 100 µM (inactive); with HOP-62, > 100 µM (inactive).

For `CC(C)OP(=O)(OC(C)C)/C(=N/Nc1ccc([N+](=O)[O-])cc1)NN`, the GI50 with SF-539 is > 100 µM (inactive); with TK-10 it was > 100 µM (inactive); in the assay with NCI-H522, 47.8 µM (inactive); in the assay on SNB-78, > 100 µM (inactive); in the assay with COLO 205, > 100 µM (inactive); with DMS-114, 61.1 µM (inactive). Also, the GI50 in the assay on SK-MEL-28 was > 100 µM (inactive); with SR, > 100 µM (inactive); in the assay with SW-620 it was > 100 µM (inactive); in the assay on DMS-273 it was > 100 µM (inactive); with LXFL 529, 41.5 µM (inactive); in the assay on HCT-15, over 100 µM. Besides, the GI50 in the assay on HOP-62 and in the assay with KM-20L2 was > 100 µM (inactive) each time.

For the molecule `COc1ccc2[nH]c3c(c2c1)[C@H]1CCC(C(C)(C)C)C[C@H]1[C@H]1C(=O)N(c2ccccc2)C(=O)[C@@H]31` (some centres not stated), the GI50 was 5.4 µM (inactive) in the assay on SF-539; 22.6 µM (inactive) in the assay on TK-10; 12.1 µM (inactive) in the assay with NCI-H522; 11.4 µM (inactive) with COLO 205; 21.9 µM (inactive) in the assay on DMS-114; 44.3 µM (inactive) with SK-MEL-28. Besides, the GI50 with SW-620 was 20.2 µM (inactive); with DMS-273 it was 32.7 µM (inactive); in the assay with LXFL 529, 69.3 µM (inactive); in the assay on HCT-15, over 100 µM; with HOP-18 it was 25.6 µM (inactive); with HOP-62, 11.1 µM (inactive). For the same molecule, in the assay on KM-20L2, the GI50 is > 51.4 µM (inactive).

In the case of `O=C1c2ccccc2C(=O)c2nc3c(O)cccc3cc21`, the GI50 is 28.4 µM (inactive) in the assay with SF-539; 74.5 µM (inactive) in the assay with TK-10; 4.97 µM (inactive) in the assay on NCI-H522; 23.8 µM (inactive) in the assay on COLO 205; 3.81 µM (inactive) with DMS-114; > 100 µM (inactive) with SK-MEL-28. Also, the GI50 was 3.18 µM (inactive) in the assay on SR; 3.57 µM (inactive) in the assay on SW-620; 6.61 µM (inactive) with DMS-273; 4.57 µM (inactive) with LXFL 529; 13 µM with HCT-15; 24.9 µM (inactive) in the assay with HOP-18. For the same molecule, the results for the GI50 with HOP-62 and in the assay on KM-20L2 were 38.9 µM (inactive) and 26.7 µM (inactive), respectively.
